Where two headings read alike, the source gives them in different places.
Assays:
Assay type in all cases: cell-based
Am5-HT2β [1] = biological target: T1, Am5-HT2β (Apis mellifera, UniProt A0ACM8QMF9); assay: Fluo-4 intracellular Ca2+ assay in stable HEK […] cells
T1 construct: gene 5-HT2beta; cDNA from drone brain

Am5-HT2α [2] = biological target: T2, Am5-HT2α (Apis mellifera, UniProt A0A8U1C256); assay: as above
T2 construct: gene 5-HT2alpha; cDNA from drone brain

Am5-HT2α [3] = biological target: T2, Am5-HT2α; assay: Fluo-4 intracellular Ca2+ assay in stable HEK […] cells, inhibition of serotonin response; conditions: read-out: Am5-HT2αIC50
Am5-HT2β [4] = biological target: T1, Am5-HT2β; assay: as above; conditions: read-out: Am5-HT2βIC50

T1 sequence (A0ACM8QMF9 entry or part of it): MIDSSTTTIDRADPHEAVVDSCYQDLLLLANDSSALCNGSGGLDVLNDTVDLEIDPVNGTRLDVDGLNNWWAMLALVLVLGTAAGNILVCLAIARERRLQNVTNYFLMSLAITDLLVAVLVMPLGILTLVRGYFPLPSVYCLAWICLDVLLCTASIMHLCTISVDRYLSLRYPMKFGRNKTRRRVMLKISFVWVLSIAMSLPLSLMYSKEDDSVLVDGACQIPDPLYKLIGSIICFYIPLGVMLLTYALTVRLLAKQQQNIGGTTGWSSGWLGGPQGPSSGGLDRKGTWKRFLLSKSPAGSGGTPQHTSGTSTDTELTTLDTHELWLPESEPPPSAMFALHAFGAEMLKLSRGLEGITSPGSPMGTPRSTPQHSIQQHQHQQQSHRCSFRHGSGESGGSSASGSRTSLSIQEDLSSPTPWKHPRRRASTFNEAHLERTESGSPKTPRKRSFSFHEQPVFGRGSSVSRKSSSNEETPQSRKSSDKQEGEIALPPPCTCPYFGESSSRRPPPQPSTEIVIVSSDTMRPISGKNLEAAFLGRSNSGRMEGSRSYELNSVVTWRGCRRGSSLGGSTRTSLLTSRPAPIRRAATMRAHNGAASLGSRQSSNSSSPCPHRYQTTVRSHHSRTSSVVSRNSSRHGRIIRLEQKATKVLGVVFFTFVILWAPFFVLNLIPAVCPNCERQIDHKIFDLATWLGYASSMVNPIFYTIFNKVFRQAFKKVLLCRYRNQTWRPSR
T2 sequence (A0A8U1C256 entry or part of it): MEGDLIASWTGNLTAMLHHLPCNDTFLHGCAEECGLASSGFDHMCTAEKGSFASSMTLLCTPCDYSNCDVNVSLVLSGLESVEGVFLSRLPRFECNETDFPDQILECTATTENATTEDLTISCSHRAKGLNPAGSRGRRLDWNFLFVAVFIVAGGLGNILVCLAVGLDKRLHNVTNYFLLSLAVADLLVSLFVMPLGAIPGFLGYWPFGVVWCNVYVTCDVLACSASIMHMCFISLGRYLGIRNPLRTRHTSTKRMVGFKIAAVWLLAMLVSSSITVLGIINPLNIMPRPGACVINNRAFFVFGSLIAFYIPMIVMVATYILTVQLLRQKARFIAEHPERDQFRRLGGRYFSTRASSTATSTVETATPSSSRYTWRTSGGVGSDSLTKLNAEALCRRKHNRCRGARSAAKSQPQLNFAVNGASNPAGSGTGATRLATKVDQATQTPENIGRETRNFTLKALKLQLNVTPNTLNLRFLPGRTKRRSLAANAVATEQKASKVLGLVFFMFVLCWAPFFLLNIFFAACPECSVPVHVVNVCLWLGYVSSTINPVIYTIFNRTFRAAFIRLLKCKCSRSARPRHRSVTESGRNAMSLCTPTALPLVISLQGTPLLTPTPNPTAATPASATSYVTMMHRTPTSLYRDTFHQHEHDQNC

**Q.** For `COc1ccc2[nH]cc(CCN)c2c1` [5-methoxytryptamine], which EC50 (Am5-HT2β [1]) is on record?
**A.** The EC50 was 60.4 nM.

**Q.** And the EC50 (Am5-HT2α [2])?
**A.** Its EC50 is 70 nM.

**Q.** `CCCN(CCC)C1CCc2cccc(O)c2C1` (stereo not shown) [8-OH-DPAT, 8-hydroxy-2-(di-n-propylamino)tetralin] was tested. Which EC50 (Am5-HT2β [1]; read-out: EC50) did it give?
**A.** The EC50 was 562 nM.

**Q.** And the EC50 (Am5-HT2α [2]; read-out: EC50)?
**A.** The EC50 was 55900 nM.

**Q.** How did the IC50 (Am5-HT2α [3]) turn out when `Cn1ccc2cc(NC(=O)Nc3cccnc3)ccc21` [SB-200646] was run?
**A.** The IC50 was 100 nM.

**Q.** For `O=C(c1ccc(F)cc1)C1CCN(CCn2c(=O)[nH]c3ccccc3c2=O)CC1` [ketanserin], which IC50 (Am5-HT2β [4]) is on record?
**A.** The IC50 was 1500 nM.

**Q.** With `CSc1ccc2c(c1)C(N1CCN(C)CC1)Cc1ccccc1S2` (stereo not shown) [methiothepin] as the molecule, how does the IC50 (Am5-HT2α [3]) read?
**A.** Its IC50 is 600 nM.

**Q.** `CC[C@@H](CO)NC(=O)[C@@H]1C=C2c3cccc4c3c(cn4C)C[C@H]2N(C)C1` [methysergide] was tested. Which IC50 (Am5-HT2α [3]) did it give?
**A.** Its IC50 is 2200 nM.

**Q.** Which results are given for `NCCc1c[nH]c2ccc(O)cc12` [serotonin]?
**A.** EC50 (Am5-HT2β [1]; read-out: EC50): 32.5 nM; EC50 (Am5-HT2α [2]; read-out: EC50): 25.7 nM

— publication PMC3855752, “Function and Distribution of 5-HT2 Receptors in the Honeybee (Apis mellifera)” (PLoS ONE, 2013)
